Results as given in patent US20250145589A1, “PYRIDINE DERIVATIVE AND USE THEREOF” (SICHUAN HUIYU PHARMACEUTICAL CO., LTD., priority 2021, published 2025).
pIC50: −log10 of the molar value. Where two headings read alike, the source gives them in different places.

What was measured:
[1] = system: NCI-H358 cells (KRAS G12C mutant); experiment: NCI-H358 cell proliferation inhibition (CellTiter-Glo); format: cell-based; details: Homo sapiens, NCI-H358, 72 h; for pIC50: H358 cells (G12C mutation), 3 days, Table 6, read-out: NCI-H358 (IC50)
Method: The CellTiter-Glo®, assay was used to detect the number of viable cells, in order to evaluate the anti-proliferation efficacy of compounds. […] The compounds were serially diluted 5-fold in DMSO to obtain 8 concentrations, and then further diluted with RPMI-640 (10% FBS) cell culture medium to obtain the working solutions (5′), 20 μL of each working solution was added to the cell culture supernatant in each well, and the plate was further incubated for 3 days at 37° C. with 5% CO2. The plate was then equilibrated with CellTiter-Glo® reagent at room temperature (25° C.) for 10-30 minutes. After aspirating 50 μL of the medium, 50 μL of CellTiter-Glo® reagent was added. The cells were thoroughly mixed with the CellTiter-Glo® reagent using a microplate shaker for 2 minutes, and then incubated at room temperature for 10 minutes. The 96-well plate was placed in a multi-mode microplate reader to record the luminescence values (RLU). The inhibition rate was calculated through the following equation: [formula] Data were analyzed using GraphPad Prism for IC50 values (Note: The negative control refers to the group without inhibitor).

PI3Kα = PI3Kα (Homo sapiens (Human), UniProt P42336); experiment: Inhibition of PI3Kα efficacy assay (ADP-Glo kinase assay); format: biochemical; details: read-out: PI3Kα inhibitory activity (IC50)
Method: Inhibition of PI3Kα Efficacy assay The ADP-Glo™ kinase assay was used to assess the inhibition of PI3Kα with our compounds. The utilized proteins and assay reagents were obtained from the ADP-Glo™ Kinase Assay Kit (Promega). Initially, a 2 mM stock solution of the test compound (dissolved in DMSO) was serially diluted in five-fold concentrations using DMSO to obtain eight working solutions 1 (200′). […] Subsequently, 2 μL of 2.5×PI and ATP solution mixture were added to each well, mixed, and incubated at RT for 60 minutes. Then, 5 μL of ADP-Glo (containing 10 mM MgCl2) reagent was added to each well, mixed, and incubated at RT for 40 minutes. Finally, 10 μL of the Kinase Detection Reagent was added to each well, mixed, and incubated at RT for 40 minutes. […] Data were analyzed using GraphPad Prism with log(inhibitor) vs. response—Variable Slope(four parameters) fitting calculations for […]. (Note: The negative control refers to the group without inhibitor, and the blank control refers to the group without enzyme.) The data were presented in Tables 1 to 4.

Chain of PI3Kα (P42336 whole entry): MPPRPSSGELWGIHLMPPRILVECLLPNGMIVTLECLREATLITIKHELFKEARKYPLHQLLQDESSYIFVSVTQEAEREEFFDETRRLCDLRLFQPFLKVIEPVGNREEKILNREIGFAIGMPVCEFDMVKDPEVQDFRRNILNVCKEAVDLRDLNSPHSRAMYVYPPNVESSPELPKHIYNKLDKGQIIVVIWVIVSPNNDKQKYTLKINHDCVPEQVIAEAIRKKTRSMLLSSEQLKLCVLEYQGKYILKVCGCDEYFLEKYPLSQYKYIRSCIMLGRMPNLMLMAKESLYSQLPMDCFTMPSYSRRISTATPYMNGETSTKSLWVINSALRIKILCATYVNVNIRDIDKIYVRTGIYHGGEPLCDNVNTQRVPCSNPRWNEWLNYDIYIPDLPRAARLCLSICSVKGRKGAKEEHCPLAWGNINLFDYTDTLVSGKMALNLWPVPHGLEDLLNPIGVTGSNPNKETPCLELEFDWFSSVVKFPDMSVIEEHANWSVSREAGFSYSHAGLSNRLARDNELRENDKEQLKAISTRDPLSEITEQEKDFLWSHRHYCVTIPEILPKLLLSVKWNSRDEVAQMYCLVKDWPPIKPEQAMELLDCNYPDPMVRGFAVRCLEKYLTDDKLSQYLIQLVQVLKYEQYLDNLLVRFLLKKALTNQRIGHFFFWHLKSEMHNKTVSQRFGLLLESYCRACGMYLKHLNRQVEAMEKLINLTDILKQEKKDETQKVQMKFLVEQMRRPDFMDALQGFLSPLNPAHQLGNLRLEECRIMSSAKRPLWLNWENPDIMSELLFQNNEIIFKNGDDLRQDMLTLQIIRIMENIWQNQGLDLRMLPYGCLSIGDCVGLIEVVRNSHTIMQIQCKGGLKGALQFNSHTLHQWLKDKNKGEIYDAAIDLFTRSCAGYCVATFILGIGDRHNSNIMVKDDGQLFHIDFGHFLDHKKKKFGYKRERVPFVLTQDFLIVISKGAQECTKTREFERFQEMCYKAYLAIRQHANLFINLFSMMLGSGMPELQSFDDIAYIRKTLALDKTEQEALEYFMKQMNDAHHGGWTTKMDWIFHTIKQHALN
Chain of PI3Kα (P27986 whole entry partner): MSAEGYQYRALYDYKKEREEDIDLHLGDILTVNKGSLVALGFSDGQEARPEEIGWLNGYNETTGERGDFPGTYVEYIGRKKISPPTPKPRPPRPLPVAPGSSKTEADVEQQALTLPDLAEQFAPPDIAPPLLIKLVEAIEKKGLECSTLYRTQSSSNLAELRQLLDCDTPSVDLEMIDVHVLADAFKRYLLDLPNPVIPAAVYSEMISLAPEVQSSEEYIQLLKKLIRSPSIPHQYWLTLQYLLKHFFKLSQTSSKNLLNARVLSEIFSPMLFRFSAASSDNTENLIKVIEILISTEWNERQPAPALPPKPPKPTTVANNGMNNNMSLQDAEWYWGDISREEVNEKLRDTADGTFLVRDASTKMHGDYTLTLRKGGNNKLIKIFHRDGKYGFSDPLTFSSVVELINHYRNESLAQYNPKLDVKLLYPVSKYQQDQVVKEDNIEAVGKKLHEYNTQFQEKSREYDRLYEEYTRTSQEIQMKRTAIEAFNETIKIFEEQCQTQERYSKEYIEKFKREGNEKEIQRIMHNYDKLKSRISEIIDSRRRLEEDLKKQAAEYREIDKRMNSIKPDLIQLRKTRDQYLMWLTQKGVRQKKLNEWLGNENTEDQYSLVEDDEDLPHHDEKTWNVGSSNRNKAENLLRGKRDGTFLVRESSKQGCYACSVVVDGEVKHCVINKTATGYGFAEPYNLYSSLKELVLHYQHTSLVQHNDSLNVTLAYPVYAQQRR

Row | Compound | pIC50 [1] | pIC50 (PI3Kα; Table 2) | further results
1 | C=CC(=O)N1CCN(c2nc(OC[C@@H]3CCCN3C)nc3ccc(-c4cnc(OC)c(NS(=O)(=O)c5ccc(F)cc5F)c4)cc23)C[C@@H]1CC#N [Example 5, N-(5-(4-((S)-4-acryloyl-3-(cyanomethyl)piperazin-1-yl)-2-(((S)-1-methylpyrrolidin-2-yl)methoxy)quinazolin-6-yl)-2-methoxypyridin-3-yl)-2,4-difluorobenzenesulfonamide] | 5.27 | – | –
2 | COc1ncc(-c2ccc3ncnc(N4CCN(C(=O)/C=C/CN(C)C)CC4)c3c2)cc1NS(=O)(=O)c1ccc(F)cc1F [Example 11, (E)-N-(5-(4-(4-(4-(dimethylamino)but-2-enoyl)piperazin-1-yl)quinazolin-6-yl)-2-methoxypyridin-3-yl)-2,4-difluorobenzenesulfonamide] | 6.99 | – | pIC50 (PI3Kα; Table 1): 9.19
3 | C=CC(=O)N1CCN(c2nc(C)nc3ccc(-c4cnc(OC)c(NS(=O)(=O)c5ccc(F)cc5F)c4)cc23)CC1 [Example 29, N-(5-(4-(4-acryloylpiperazin-1-yl)-2-methylquinazolin-6-yl)-2-methoxypyridin-3-yl)-2,4-difluorobenzenesulfonamide] | – | – | pIC50 (PI3Kα; Table 1): 7.38
4 | C=C(F)C(=O)N1C[C@H](C)N(c2ncnc3ccc(-c4cnc(OC)c(NS(=O)(=O)c5c(F)cccc5F)c4)cc23)C[C@H]1C [Example 52, 2,6-difluoro-N-(5-(4-((2S,5R)-4-(2-fluoroacryloyl)-2.5-dimethylpiperazin-1-yl)quinazolin-6-yl)-2-methoxypyridin-3-yl) benzenesulfonamide] | – | 8.04 | –
5 | C=CC(=O)N1C[C@H](C)N(c2ncnc3ccc(-c4cnc(OC)c(NS(=O)(=O)c5c(F)cccc5F)c4)cc23)C[C@H]1C [Example 53, N-(5-(4-((2S,5R)-4-acryloyl-2,5-dimethylpiperazin-1-yl)quinazolin-6-yl)-2-methoxypyridin-3-yl)-2,6-difluorobenzene-sulfonamide] | 6.28 | 8.36 | –
6 | COc1ncc(-c2ccc3ncnc(N4CCN(C(=O)C5=CC(=O)CCC5)CC4)c3c2)cc1NS(=O)(=O)c1c(F)cccc1F [Example 54, 2,6-difluoro-N-(2-methoxy-5-(4-(4-(3-oxocyclohex-1-ene-1-carbonyl)piperazin-1-yl)quinazolin-6-yl)pyridin-3-yl) benzenesulfonamide] | 7.98 | 8.60 | –
7 | COc1ncc(-c2ccc3ncnc(N4CCC5(CN(C(=O)/C=C/n6ccnn6)C5)C4)c3c2)cc1NS(=O)(=O)c1ccc(F)cc1F [Example 61, (E)-N-(5-(4-(2-(3-(1H-1,2,3-triazol-1-yl)acryloyl)-2,6-diazaspiro [3.4]octan-6-yl)quinazolin-6-yl)-2-methoxy-pyridin-3-yl)-2,4-difluoro-benzene-sulfonamide] | 6.53 | 8.28 | –
8 | C=C(C(=O)N1CCN(c2ncnc3ccc(-c4cnc(OC)c(NS(=O)(=O)c5ccc(F)cc5F)c4)cc23)CC1)C(C)C [Example 63, 2,4-difluoro-N-(2-methoxy-5-(4-(4-(3-methyl-2-methylene-butanoyl)piperazin-1-yl)quinazolin-6-yl)pyridin-3-yl) benzene-sulfonamide] | 7.71 | 8.21 | –
9 | COC(=O)/C=C/C(=O)N1CCN(c2ncnc3ccc(-c4cnc(OC)c(NS(=O)(=O)c5ccc(F)cc5F)c4)cc23)CC1 [Example 67, methyl (E)-4-(4-(6-(5-((2,4-difluorophenyl)sulfonamido)-6-methoxy-pyridin-3-yl)quinazolin-4-yl)piperazin-1-yl)-4-oxobut-2-enoate] | 7.62 | 8.01 | –
10 | COc1ncc(-c2ccc3ncnc(N4CCN(C(=O)c5cccc(O)c5)CC4)c3c2)cc1NS(=O)(=O)c1ccc(F)cc1F [Example 69, 2,4-difluoro-N-(5-(4-(4-(3-hydroxy-benzoyl)piperazin-1-yl)quinazolin-6-yl)-2-methoxy-pyridin-3-yl) benzene-sulfonamide] | 7.22 | – | –
11 | COc1ncc(-c2ccc3ncnc(N4CCN(C(=O)/C(F)=C/C(C)=O)CC4)c3c2)cc1NS(=O)(=O)c1ccc(F)cc1F [Example 77, (Z)-2,4-difluoro-N-(5-(4-(4-(2-fluoro-4-oxopent-2-enoyl)piperazin-1-yl)quinazolin-6-yl)-2-methoxypyridin-3-yl)benzenesulfonamide] | – | 8.41 | IC50 ([1]; read-out: NCI-H358 (IC50, nM)): 221 nM
12 | CCCC(=O)/C=C/C(=O)N1CCN(c2ncnc3ccc(-c4cnc(OC)c(N(C)S(=O)(=O)c5ccc(F)cc5F)c4)cc23)CC1 [Example 80, (E)-2,4-difluoro-N-(2-methoxy-5-(4-(4-(4-oxohept-2-enoyl)piperazin-1-yl)quinazolin-6-yl)pyridin-3-yl)-N-methylbenzenesulfonamide] | 6.11 | – | –
13 | COc1ncc(-c2ccc3ncnc(N4CCC5(CN(C(=O)/C=C/C(C)=O)C5)C4)c3c2)cc1N(C)S(=O)(=O)c1ccc(F)cc1F [Example 81, (E)-2,4-difluoro-N-(2-methoxy-5-(4-(2-(4-oxopent-2-enoyl)-2,6-diazaspiro[3.4]octan-6-yl)quinazolin-6-yl)pyridin-3-yl)-N-methylbenzenesulfonamide] | 5.96 | – | –
14 | C=C(F)C(=O)N1CCN(c2ncnc3ccc(-c4cnc(Cl)c(NS(=O)(=O)c5c(F)cccc5F)c4)cc23)CC1 [Example 85, N-(2-chloro-5-(4-(4-(2-fluoroacryloyl)piperazin-1-yl)quinazolin-6-yl)pyridin-3-yl)-2,6-difluorobenzenesulfonamide] | 6.67 | 8.55 | –
15 | CC(=O)/C=C/C(=O)N1CC2(CCN(c3ncnc4ccc(-c5cnc(Cl)c(NS(=O)(=O)c6c(F)cccc6F)c5)cc34)C2)C1 [Example 86, (E)-N-(2-chloro-5-(4-(2-(4-oxopent-2-enoyl)-2,6-diazaspiro[3.4]octan-6-yl)quinazolin-6-yl)pyridin-3-yl)-2,6-difluorobenzenesulfonamide] | 6.57 | 9.51 | –
16 | CC(=O)/C=C/C(=O)N1CC2(CCN(c3ncnc4ccc(-c5cnc(Cl)c(NS(=O)(=O)c6c(F)cccc6F)c5)cc34)CC2)C1 [Example 87, (E)-N-(2-chloro-5-(4-(2-(4-oxopent-2-enoyl)-2,7-diazaspiro[3.5]nonan-7-yl)quinazolin-6-yl)pyridin-3-yl)-2,6-difluorobenzenesulfonamide] | 6.88 | 8.62 | –
17 | COc1ccc(-c2ccc3ncnc(N4CCN(C(=O)/C=C/C(C)=O)CC4)c3c2)cc1NS(=O)(=O)c1ccc(F)cc1F [Example 95, (E)-2,4-difluoro-N-(2-methoxy-5-(4-(4-(4-oxopent-2-enoyl)piperazin-1-yl)quinazolin-6-yl)phenyl)benzenesulfonamide] | 6.24 | 6.38 | –
18 | C=C(F)C(=O)N1CCN(c2ncnc3ccc(-c4cnc(OC)c(NS(=O)(=O)c5c(F)cc(F)cc5F)c4)cc23)CC1 [Example 98, 2,4,6-trifluoro-N-(5-(4-(4-(2-fluoroacryloyl)piperazin-1-yl)quinazolin-6-yl)-2-methoxypyridin-3-yl)benzenesulfonamide] | 8.07 | 8.01 | –
19 | COc1c(F)cc(-c2ccc3ncnc(N4CCN(C(=O)/C=C/C(C)=O)CC4)c3c2)cc1NS(=O)(=O)c1ccc(F)cn1 [Example 121, (E)-5-fluoro-N-(3-fluoro-2-methoxy-5-(4-(4-(4-oxopent-2-enoyl)piperazin-1-yl)quinazolin-6-yl)phenyl)pyridine-2-sulfonamide] | – | 6.95 | –
20 | CC(=O)/C=C/C(=O)N1CCN(c2ncnc3ccc(-c4cnc(CO)c(NS(=O)(=O)c5ccc(F)cc5F)c4)cc23)CC1 [Example 183, (E)-2,4-difluoro-N-(2-(hydroxy-methyl)-5-(4-(4-(4-oxopent-2-enoyl)piperazin-1-yl)quinazolin-6-yl)pyridin-3-yl)benzene-sulfonamide] | – | – | pIC50 (PI3Kα; Table 4): 8.28
21 | COc1ncc(-c2ccc3ncnc(N4CCN(C(=O)/C=C/C(C)=O)CC4)c3c2)cc1NS(=O)(=O)c1ccc(C(=O)O)cc1F [Example 209, (E)-3-fluoro-4-(N-(2-methoxy-5-(4-(4-(4-oxopent-2-enoyl)piperazin-1-yl)quinazolin-6-yl)pyridin-3-yl)sulfamoyl)benzoic acid] | – | – | pIC50 (PI3Kα; Table 4): 9.24
22 | [2H]C([2H])([2H])n1cc(-c2ccc3ncnc(N4CCN(C(=O)/C=C/C(C)=O)CC4)c3c2)cc(NS(=O)(=O)c2ccc(F)cc2F)c1=O [Example 244, (E)-2,4-difluoro-N-(1-(methyl-d3)-2-oxo-5-(4-(4-(4-oxopent-2-enoyl)piperazin-1-yl)quinazolin-6-yl)-1,2-dihydropyridin-3-yl)benzenesulfonamide] | – | – | pIC50 (PI3Kα; Table 4): 6.57
